Results reported in the supplement of paper PMC13380429.

Tests used:
[1] = tested on: A549-ACE2 infected with SARS-CoV-2; assay: cell count relative to DMSO; higher = less toxic; settings: 24 h
Caco-2 [2] = assay: cell viability relative to DMSO; higher = less toxic; settings: 72 h
Calu-3 [3] = assay: as above; settings: 72 h
HepG2 [4] = assay: as above; settings: 72 h
U2OS [5] = assay: as above; settings: 72 h
Vero E6 [6] = assay: as above; settings: 72 h
[7] = tested on: A549-ACE2 infected with SARS-CoV-2; assay: SARS-CoV-2 infection rate relative to DMSO; higher = more infection; settings: 24 h
A549-ACE2 = assay: drug-induced phospholipidosis relative to tamoxifen; higher = more phospholipidosis; settings: 0.3 µM
[8] = tested on: A549-ACE2 infected with SARS-CoV-2; assay: morphology score (similarity to uninfected cells); higher = more like uninfected cells; settings: 24 h
Caco-2 [9] = assay: relative viability EC50 (midpoint between 100% and the lowest measured viability); higher = less toxic; settings: 72 h
Calu-3 [10] = assay: as above; settings: 72 h
HepG2 [11] = assay: as above; settings: 72 h
U2OS [12] = assay: as above; settings: 72 h
Vero E6 [13] = assay: as above; settings: 72 h
Caco-2 [14] = assay: drug sensitivity score (DSS) for viability; higher = more toxic; extreme values may be limits of the assay; settings: 72 h
Calu-3 [15] = assay: as above; settings: 72 h
HepG2 [16] = assay: as above; settings: 72 h
U2OS [17] = assay: as above; settings: 72 h
Vero E6 [18] = assay: as above; settings: 72 h

CC(C)C[C@H](NC(=O)CNC(=O)c1cc(Cl)ccc1Cl)B(O)O [ixazomib]
Settings | SARS-CoV-2 infection rate [%] | cell count [%] | cell viability [%] | drug-induced phospholipidosis [%] | morphology score
A549-ACE2, 24 h | – | – | – | -5.63 | –
A549-ACE2, 48 h | – | – | – | -3.87 | –
A549-ACE2, 72 h | – | – | – | -1.4 | –
Caco-2 [2], 1 nM | – | – | 86.9 | – | –
Caco-2 [2], 10 nM | – | – | 102 | – | –
Caco-2 [2], 100 nM | – | – | 24.4 | – | –
Caco-2 [2], 1000 nM | – | – | 4.7 | – | –
Caco-2 [2], 10000 nM | – | – | 7.3 | – | –
Calu-3 [3], 1 nM | – | – | 90 | – | –
Calu-3 [3], 10 nM | – | – | 99 | – | –
Calu-3 [3], 100 nM | – | – | 35.8 | – | –
Calu-3 [3], 1000 nM | – | – | 5.8 | – | –
Calu-3 [3], 10000 nM | – | – | 5.7 | – | –
HepG2 [4], 1 nM | – | – | 107 | – | –
HepG2 [4], 10 nM | – | – | 105 | – | –
HepG2 [4], 100 nM | – | – | 99.5 | – | –
HepG2 [4], 1000 nM | – | – | 7.7 | – | –
HepG2 [4], 10000 nM | – | – | 0.6 | – | –
U2OS [5], 1 nM | – | – | 95.9 | – | –
U2OS [5], 10 nM | – | – | 93.4 | – | –
U2OS [5], 100 nM | – | – | 84.5 | – | –
U2OS [5], 1000 nM | – | – | 1.3 | – | –
U2OS [5], 10000 nM | – | – | -0.1 | – | –
Vero E6 [6], 1 nM | – | – | 97.4 | – | –
Vero E6 [6], 10 nM | – | – | 99.3 | – | –
Vero E6 [6], 100 nM | – | – | 78.5 | – | –
Vero E6 [6], 1000 nM | – | – | 11.5 | – | –
Vero E6 [6], 10000 nM | – | – | 3.7 | – | –
[1], 0.1 µM | – | 90 | – | – | –
[1], 0.3 µM | – | 80 | – | – | –
[1], 1 µM | – | 72 | – | – | –
[1], 3 µM | – | 59 | – | – | –
[7], 0.1 µM | 99 | – | – | – | –
[7], 0.3 µM | 98 | – | – | – | –
[7], 1 µM | 64 | – | – | – | –
[7], 3 µM | 46 | – | – | – | –
[8], 0.1 µM | – | – | – | – | 0.03
[8], 0.3 µM | – | – | – | – | 0.25
[8], 1 µM | – | – | – | – | 0.26
[8], 3 µM | – | – | – | – | 0.26

Settings | drug sensitivity score | relative viability EC50 [nM]
Caco-2 [9] | – | 58.8
Caco-2 [14] | 25.9 | –
Calu-3 [10] | – | 71.4
Calu-3 [15] | 24.6 | –
HepG2 [11] | – | 383
HepG2 [16] | 16.8 | –
U2OS [12] | – | 197
U2OS [17] | 20.5 | –
Vero E6 [13] | – | 218
Vero E6 [18] | 18.9 | –

NCCCCCc1c[nH]cn1 [impentamine]
cell viability [%]
Settings | Caco-2 [2] | Calu-3 [3] | HepG2 [4] | U2OS [5] | Vero E6 [6]
1 nM | 98 | 98.3 | 96.6 | 95.7 | 96.6
10 nM | 97.9 | 99.4 | 93.9 | 102 | 99.3
100 nM | 91.6 | 100 | 103 | 96.6 | 99.9
1000 nM | 97 | 98.5 | 97.5 | 98.3 | 93.5
10000 nM | 91.3 | 91.9 | 101 | 95.4 | 96.9

Settings | drug sensitivity score | relative viability EC50 [nM]
Caco-2 [9] | – | > 10000
Caco-2 [14] | 0 | –
Calu-3 [10] | – | > 10000
Calu-3 [15] | 0 | –
HepG2 [11] | – | > 10000
HepG2 [16] | 0 | –
U2OS [12] | – | > 10000
U2OS [17] | 0 | –
Vero E6 [13] | – | > 10000
Vero E6 [18] | 0 | –
